Reference: patent US20260216326A1, “METHODS OF TREATING INFLAMMATORY DISEASES WITH COMBINATION OF TL1A INHIBITORS AND S1PR INHIBITORS” (Prometheus Biosciences, Inc., priority 2022, published 2026)
“Also recorded” adds a separate entry of the source. Like-named read-outs stand apart in the source and are kept apart here.

Experiments:
[1] = test system: Rag2−/− mice receiving CD4+CD45RB+ T cells; test: T cell transfer model of murine colitis; format: in vivo, mouse
Source text: The murine T cell transfer model of colitis is used to test the synergistic effect of blocking TL1A and S1P on the development of colitis using a mouse-specific TL1A antibody (anti-TL1A) and S1PR functional antagonist (FTY720). To initiate colitis, CD4+CD45RB+ T cells from the spleens of C57BL/6 mice are sorted to >95% purity and transferred by I.V. injection to Rag2−/− mice lacking mature B and T cells (0.5e6 cells/mouse), which are then randomized by weight on day 0. Mice are weighed and monitored for signs of disease every other day for 7 weeks.
One day prior to the initiation of disease (day-1) and weekly throughout the course of the experiment, mice are treated with a single I.P. injection of anti-TL1A in 0.2 ml total volume according to Table 64. In addition, FTY720 or the appropriate vehicle control is orally dosed daily according to Table 64. Group 1 serve as the naïve control and Group 2 is treated with isotype control antibodies. Groups 3 and 4 test the high dose of either anti-TL1A or FTY720, respectively. Groups 5 and 6 test the low dose of either anti-TL1A or FTY720. Groups 7 and 8 test the high and low dose combination therapies, respectively.
At day 49 after disease induction with CD4+CD45RB+ T cell transfer, mice are anaesthetized and bled by cardiac puncture. Blood is kept on ice for 30 minutes and then spun down to separate the serum, which is stored at −80 C for cytokine measurement by MSD. After the terminal bleed, mice are euthanized by CO2 overdose per IACUC guidelines. Colons are harvested for each mouse and measured for length and weight. 1 cm of the middle colon is collected into RNAlater, and kept at room temperature for 2 hours prior to freezing at −80 C. The colonic tissue preserved in RNAlater is processed for mRNA and subjected to bulk RNA sequencing and differential gene expression analysis. The remainder of the proximal and distal colon is preserved in 10% NBF at room temperature for 48 hours prior to moving to 70% ethanol. […]

IL10−/− mice = test: IL10−/− model of murine colitis; format: in vivo, mouse
Experimental: IL10−/− and WT mice on the C57BL/6 background are monitored for body weight every other day. IL10−/− mice begins to manifest symptoms of colitis by 4 weeks of age compared with WT mice, including diarrhea and weight loss greater than 5%. Treatment protocols are initiated when the mice are between 14-18 weeks of age.
By 14−18 weeks of age, IL10−/− mice develop sufficiently severe symptoms of disease to being testing therapeutic treatments. For four weeks, mice are treated weekly with Intraperitoneal (I.P.) anti-TL1a injection and daily with oral FTY720 (S1PR inhibitor, anti-S1PR) according to Table 61. Group 1 serves as the naïve control and Group 2 is treated with isotype and vehicle controls. Groups 3 and 4 test the high dose of either TL1a or S1PR blockade, respectively. Groups 5 and 6 test the low dose of either TL1a or S1PR blockade. Groups 7 and 8 test the high and low dose combination therapies, respectively.
At day 28 after initiation of treatment, mice are anaesthetized and bled by cardiac puncture. Blood is kept on ice for 30 minutes and then spun down to separate the serum, which is stored at −80 C for cytokine measurement by MSD. After the terminal bleed, mice are euthanized by CO2 overdose per IACUC guidelines. Colons are harvested for each mouse and measured for length and weight. 1 cm of the middle colon is collected into RNAlater, and kept at room temperature for 2 hours prior to freezing at −80 C. The colonic tissue preserved in RNAlater is processed for mRNA and subjected to bulk RNA sequencing and standard differential gene expression analysis. The remainder of the proximal and distal colon is preserved in 10% NBF at room temperature for 48 hours prior to moving to 70% ethanol. These preserved colonic tissues are sectioned and stained by H&E prior to analysis by a veterinary pathologist for clinical signs of colitis.

S1P4 [2] = biological target: T1, S1P4 (Homo sapiens, UniProt O95977); conditions: cited from earlier work
T1 sequence (O95977 1-384): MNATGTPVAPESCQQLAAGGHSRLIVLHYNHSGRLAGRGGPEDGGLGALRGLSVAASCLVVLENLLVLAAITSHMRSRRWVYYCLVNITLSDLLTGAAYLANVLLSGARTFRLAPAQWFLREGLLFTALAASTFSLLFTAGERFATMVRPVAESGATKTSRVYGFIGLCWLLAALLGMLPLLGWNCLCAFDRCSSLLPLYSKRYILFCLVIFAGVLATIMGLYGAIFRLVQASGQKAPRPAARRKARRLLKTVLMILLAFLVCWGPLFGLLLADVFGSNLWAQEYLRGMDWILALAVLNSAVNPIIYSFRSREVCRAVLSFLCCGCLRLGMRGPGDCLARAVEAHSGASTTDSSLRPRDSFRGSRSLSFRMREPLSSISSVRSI

S1P2 = S1P2 (Homo sapiens, UniProt O95136); conditions: cited from earlier work
Sequence of S1P2 (O95136 whole entry, species assumed): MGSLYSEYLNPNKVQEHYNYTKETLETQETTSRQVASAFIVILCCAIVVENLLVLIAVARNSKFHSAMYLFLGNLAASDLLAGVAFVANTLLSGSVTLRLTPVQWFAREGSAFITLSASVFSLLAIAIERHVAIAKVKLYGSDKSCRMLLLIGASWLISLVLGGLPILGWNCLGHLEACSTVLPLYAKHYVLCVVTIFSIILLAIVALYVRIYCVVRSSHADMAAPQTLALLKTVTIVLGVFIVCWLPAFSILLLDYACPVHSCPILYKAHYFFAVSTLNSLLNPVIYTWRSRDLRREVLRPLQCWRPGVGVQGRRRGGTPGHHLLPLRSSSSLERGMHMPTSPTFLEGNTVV

S1P3 [3] = biological target: T2, S1P3 (Homo sapiens, UniProt Q99500); conditions: cited from earlier work
Target sequence in this assay (Q99500 whole entry, species assumed): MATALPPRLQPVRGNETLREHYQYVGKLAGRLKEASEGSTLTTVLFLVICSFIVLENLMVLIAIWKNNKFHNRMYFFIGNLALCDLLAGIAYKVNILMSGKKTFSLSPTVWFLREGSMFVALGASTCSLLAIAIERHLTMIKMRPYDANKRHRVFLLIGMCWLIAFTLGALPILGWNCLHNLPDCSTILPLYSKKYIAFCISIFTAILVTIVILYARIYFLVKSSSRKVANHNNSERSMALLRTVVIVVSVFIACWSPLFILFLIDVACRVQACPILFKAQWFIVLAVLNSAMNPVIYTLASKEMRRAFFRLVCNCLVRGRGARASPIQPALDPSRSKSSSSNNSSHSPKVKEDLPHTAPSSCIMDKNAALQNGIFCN

S1P1 [4] = biological target: T3, S1P1 (Homo sapiens, UniProt P21453); conditions: cited from earlier work
T3 sequence (P21453 whole entry, species assumed): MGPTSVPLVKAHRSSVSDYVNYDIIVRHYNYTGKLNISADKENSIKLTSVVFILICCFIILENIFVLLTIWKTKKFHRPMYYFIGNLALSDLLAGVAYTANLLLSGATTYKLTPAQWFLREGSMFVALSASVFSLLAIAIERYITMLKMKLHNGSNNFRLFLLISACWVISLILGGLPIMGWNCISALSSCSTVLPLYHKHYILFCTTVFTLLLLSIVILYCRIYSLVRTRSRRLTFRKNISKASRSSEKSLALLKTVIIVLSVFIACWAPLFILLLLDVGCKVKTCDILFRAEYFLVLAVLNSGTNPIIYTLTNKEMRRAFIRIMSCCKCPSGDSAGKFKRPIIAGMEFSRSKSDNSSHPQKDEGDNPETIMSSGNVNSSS

peripheral lymphocytes = conditions: mice, 24 h after oral dosing; cited from earlier work
[5] = biological target: recombinant monkey S1P1 receptors; conditions: read-out: EC50, agonist of S1P1 receptors; cited from earlier work
[6] = biological target: recombinant dog S1P1 receptors; conditions: read-out: EC50, agonist of S1P1 receptors; cited from earlier work
[7] = biological target: recombinant mouse S1P1 receptors (Mus musculus, UniProt O08530); conditions: read-out: EC50, agonist of S1P1 receptors; cited from earlier work
Sequence of recombinant mouse S1P1 receptors (O08530 whole entry): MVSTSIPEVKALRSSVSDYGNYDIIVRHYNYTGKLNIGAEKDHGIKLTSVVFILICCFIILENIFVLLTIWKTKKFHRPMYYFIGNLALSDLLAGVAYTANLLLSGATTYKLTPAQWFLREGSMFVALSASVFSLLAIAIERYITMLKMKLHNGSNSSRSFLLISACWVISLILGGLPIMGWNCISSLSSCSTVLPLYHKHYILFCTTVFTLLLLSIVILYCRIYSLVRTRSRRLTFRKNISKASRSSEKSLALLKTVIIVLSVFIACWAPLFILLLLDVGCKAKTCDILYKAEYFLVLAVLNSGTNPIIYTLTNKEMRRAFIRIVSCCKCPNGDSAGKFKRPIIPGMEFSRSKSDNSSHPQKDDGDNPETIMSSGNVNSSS

human S1P5 = human S1P5 (Homo sapiens, UniProt Q9H228); conditions: cited from earlier work
Sequence of human S1P5 (Q9H228 whole entry): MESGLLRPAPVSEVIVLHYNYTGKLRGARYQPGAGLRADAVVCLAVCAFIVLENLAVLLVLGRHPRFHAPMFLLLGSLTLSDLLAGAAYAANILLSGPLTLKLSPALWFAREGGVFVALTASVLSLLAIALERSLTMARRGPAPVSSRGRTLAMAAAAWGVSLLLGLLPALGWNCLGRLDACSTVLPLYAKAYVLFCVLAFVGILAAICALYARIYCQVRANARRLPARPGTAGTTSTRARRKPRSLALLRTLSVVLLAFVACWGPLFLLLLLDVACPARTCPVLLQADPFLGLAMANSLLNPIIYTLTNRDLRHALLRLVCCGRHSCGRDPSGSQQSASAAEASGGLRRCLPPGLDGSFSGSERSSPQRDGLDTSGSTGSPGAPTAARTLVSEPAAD

S1P4 [8] = biological target: T1, S1P4; conditions: cited from earlier work; remark: listed apart in the source
S1P3 [9] = biological target: T2, S1P3; conditions: cited from earlier work; remark: listed apart in the source
Target sequence in this assay (Q99500 whole entry): as the sequence (Q99500 whole entry, species assumed) above

[10] = biological target: human Sphingosine-1-phosphate receptor 2 (S1P2 or S1PR2) (Homo sapiens, UniProt O95136); conditions: cited from earlier work
Sequence of human Sphingosine-1-phosphate receptor 2 (S1P2 or S1PR2) (O95136 whole entry): as the sequence (O95136 whole entry, species assumed) above

S1P3 [11] = biological target: T2, S1P3; conditions: read-out: ED50 value on S1P3; cited from earlier work
Target sequence in this assay (Q99500 whole entry, species assumed): as the sequence (Q99500 whole entry, species assumed) above

[12] = biological target: sphingosine-1-phosphate receptor 1 (S1P1) (Homo sapiens, UniProt P21453); conditions: binding; cited from earlier work
Sequence of sphingosine-1-phosphate receptor 1 (S1P1) (P21453 whole entry, species assumed): as the sequence (P21453 whole entry, species assumed) above

S1P1 [13] = biological target: T3, S1P1; conditions: read-out: ED50 value, agonistic activity on S1P1; cited from earlier work
S1P3 [14] = biological target: T2, S1P3; conditions: cited from earlier work; remark: listed apart in the source
Target sequence in this assay (Q99500 whole entry, species assumed): as the sequence (Q99500 whole entry, species assumed) above

S1P1 [15] = biological target: T3, S1P1; conditions: cited from earlier work; remark: listed apart in the source
[16] = test system: CD20-expressing Raji cell; test: CDC positive control with Rituxan; format: cell-based, human
Experimental: Test articles were evaluated for CDC activity, compared to negative control Human IgG4 isotype control, on TL1A-expressing HEK293 target cells. Rituxan (anti-CD20) was used as a positive technical control on CD20-expressing Raji cell. All test articles were used at a final top concentration of 10 μg/mL followed by a five-fold dilution series (7 points total), in addition to a no treatment control, in triplicate. Cells were incubated with test articles for 15 minutes at 37 C, then treated with human complement, at a final concentration of 25%, for 3 hours at 37 C, 5% CO2. Following incubation, cells were washed and resuspended in Propidium Iodide (P.I.) at a final concentration of 5 μg/mL prior to flow cytometry analysis. Total cells were examined by flow cytometry during sample acquisition. Data were plotted on an XY chart, graphing percentage P.I. positive cells against the log of the concentration and fit to a non-linear regression curve. Cell cytotoxicity in the presence of all test articles was not distinguishable from cell cytotoxicity in the presence of isotype control (Table 12).

human whole blood = test: Human cytokine release assay, whole blood; format: cell-based

Molecule: CCCCCCCCc1ccc(CCC(N)(CO)CO)cc1 [FTY720]
- disease per histopathology ([1]; colonic tissue): reduces disease per histopathology in a dose dependent manner
- serum inflammatory cytokines (MSD) ([1]; mouse, in vivo): Reduced levels of inflammatory cytokines
- body weight loss ([1]; single agents, Groups 3-6): alleviates body weight loss in a dose-dependent manner
- disease per histopathology (IL10−/− mice; colonic tissue): reduces disease per histopathology in a dose dependent manner
- serum inflammatory cytokines (MSD) (IL10−/− mice; mouse, in vivo): Reduced levels of inflammatory cytokines
- body weight loss (IL10−/− mice; single agents, Groups 3-6): alleviates body weight loss in a dose-dependent manner

Molecule: CCCCCCCOc1ccc(CCC(N)(CO)CO)cc1C(F)(F)F [amiselimod, 2-amino-2-{2-[4-(heptyloxy)-3-(trifluoromethyl)phenyl]ethyl}propan-1,3-diol]
- agonist activity for S1P4 (S1P4 [2]): minimal agonist activity
- agonist activity for S1P2 (S1P2): no distinct agonist activity
- agonist activity for S1P3 (S1P3 [3]): no distinct agonist activity

Molecule: CCCc1ccc(COc2ccc3c(c2)CCC(CN2CC(C(=O)O)C2)=C3C)c(OC)c1 [ceralifimod, 1-({6-[(2-methoxy-4-propylbenzyl)oxy]-1-methyl-3,4-dihydronaphthalen-2-yl}methyl) azetidine-3-carboxylic acid]
- selectivity for S1P1 over S1P3 (S1P1 [4]): > 30 000 fold
- ED50, peripheral lymphocyte lowering (PLL) test (peripheral lymphocytes): 0.029 mg/kg

Molecule: O=C(O)C[C@H]1CCc2c1[nH]c1ccc(OCc3ccc(C4CCCC4)c(C(F)(F)F)c3)cc21 [etrasimod, (R)-2-(7-(4-cyclopentyl-3-(trifluoromethyl)benzyloxy)-1,2,3,4-tetrahydrocyclopenta[b]indol-3-yl) acetic acid]
- EC50 [5]: 8.7 nM
- EC50 [6]: 4.19 nM
- EC50 [7]: 3.65 nM
- relative efficacy, % of S1P response (human S1P5): 73%
- relative efficacy, % of S1P response (S1P4 [8]): 63%
- agonist or antagonist activity (S1P3 [9]): neither agonist nor antagonist activity was observed
- agonist or antagonist activity [10]: neither agonist nor antagonist activity was observed

Molecule: NC(CO)(CO)CCc1ccc(Sc2cccc(OCc3ccccc3)c2)cc1Cl [mocravimod, 2-amino-2-{2-[4-(3-benzyloxyphenylthio)-2-chlorophenyl]ethyl}-1,3-propanediol]
- EC50 (S1P3 [11]): > 1000 nM
- selectivity for S1P1 over S1P2 and S1P5 [12]: 100 fold
- EC50 (S1P1 [13]): 0.84 nM

Molecule: CCC/N=C1\S/C(=C\c2ccc(OC[C@H](O)CO)c(Cl)c2)C(=O)N1c1ccccc1C [ponesimod, (2Z,5Z)-5-[3-chloro-4-[(2R)-2,3-dihydroxypropoxy]benzylidene]-3-(2-methylphenyl)-2-(propylimino)-1,3-thiazolidin-4-one]
- potency for S1P3, lower compared with the natural ligand (S1P3 [14]): 150 fold
- S1P1 selectivity, higher compared with the natural ligand (S1P1 [15]; S1P1 versus S1P3): approximately 650 fold
- potency for S1P1, higher compared with the natural ligand (S1P1 [15]; compared with the natural ligand): 4.4
- EC50 (S1P1 [15]; read-out: half maximal effective concentration (EC50), S1P1 activation): 5.7 nM

Molecule: Rituxan: anti-CD20 antibody, positive control in the CDC assay
- CDC bioactivity / complement-mediated lysis [16]: CDC bioactivity was observed; also recorded: expected increase in complement-mediated lysis

Molecule: Staphylococcal enterotoxin B [SEB]
- cytokine release (IL-2, IL-6, IL-10, TNF, IFN-γ) in whole blood (human whole blood): induced IL-2, IL-6, IL-10, TNF, and IFN-γ release
